Experimental findings from article PMC8147984, “Effects of Sponge-Derived Alkaloids on Activities of the Bacterial α-D-Galactosidase and Human Cancer Cell α-N-Acetylgalactosaminidase” (Biomedicines, 2021) are described below.

The test system of series [1] is DLD-1 cells. Nature of the series: MTS cytotoxic activity assay on DLD-1 cells. Type of series: cell-based, human. Here is the method:
DLD-1 cells (8 × 10^3/200 μL) were seeded in 96-well plates for 24 h at 37 °C in a 5% CO2 incubator. The cells were treated with compounds 1–9 at concentrations ranging from 0 to 20 μM for an additional 24 h. Subsequently, cells were incubated with 15 μL MTS (3-(4,5-dimethylthiazol-2-yl)-5-(3-carboxymethoxyphenyl)-2-(4-sulfophenyl)-2H-tetrazolium) reagent for 3 h, and the absorbance in each well was measured at 490/630 nm using a microplate reader “Power Wave XS” (Bio Tek, Winooski, VT, USA). All the experiments were repeated three times, and the mean absorbance values were calculated. The results are expressed in absorbance by the compound’s treatment compared to the non-treated cells (control 1) and the compounds in medium (control 2). All the experiments were made in triplicate.
In general terms: Tetrazolium assays rely on reduction of a dye to a coloured formazan, in cell work by metabolically active cells.

Series [2] concerns α-NaGalase in human colorectal adenocarcinoma cell line DLD-1. The experiment in a line: Residual α-NaGalase activity (expression) in lysate of DLD-1 cells treated with alkaloids. The note with it: DLD-1 cells treated with 5 μM for 24 h. Type of series: cell-based. Here is the method: DLD-1cells (5.0 × 10^5) were seeded in […] for 24 h at 37 °C in a 5% CO2 incubator. Then the cells were treated with compounds 1–9 at concentrations ranging from 0 to 20 μM for an additional 24 h. Then the cells were harvested using 0.02% EDTA, after this 3 mL of cold 15 mM Tris–HCl (pH 7.0) was added.
Every 3–4 days cells were rinsed in phosphate buffered PBS, detached from the tissue culture flask by 1× trypsin/EDTA solution, harvested with RPMI-1640 medium and centrifuge at 500 rpm for 3 min. The culture media was discarded and cells pellet was resuspended in EDTA/Tris solution and frozen at −80 °C.
Frozen lysates of cancer cells in the 15 mM Tris buffer, pH 7.0 containing 0.02% EDTA, defrosted and sonicated 10 times during 1 min with a break of 1 min. To remove the cellular detritus, the cell homogenate was centrifuged at 4 °C, 10,000 rpm, 30 min. The supernatant proteins were precipitated with 35% ammonium sulfate, kept during four hours at 4 °C to form a pellet. The protein pellet was collected by centrifugation (4 °C, 10,000 rpm, 30 min) and dissolved in 0.05 M sodium citrate buffer, pH 5.0. The supernatant proteins were precipitated with 75% ammonium sulfate, kept overnight at 4 °C to form a pellet. The protein pellet was collected by centrifugation (4 °C, 10,000 rev/min, 30 min) and dissolved in 0.05 M sodium citrate buffer, pH 5.0. Both extracts were dialyzed against the same buffer, centrifuged to separate the insoluble precipitate. α-NaGalase activity was tested in both extracts and was found only in the protein fraction precipitated with 75% ammonium sulfate. This supernatant was used in further work as partly purified enzyme. The purification quality was controlled by 12% Laemmli-SDS-PAGE-electrophoresis.
The activity of α-PsGal and α-NaGalase were determined by increasing the amount of p-nithrophenol (pNP). To assay the α-NaGalase activity 0.05 mL of cell extract and 0.1 mL of substrate pNPNA-α-Gal (8.8 mM) in 0.05 M sodium citrate buffer, pH 5.0 were placed in cells of 96-well plate and incubated at 37 °C for 30 min. The mixtures containing 0.05 mL of an enzyme solution and 0.1 mL of a substrate solution (3.3 mM) in 0.05 M sodium phosphate buffer (pH 7.0) were incubated at 20 °C during 5 min for determination of α-PsGal standard activity. […]
Absorbance was measured at 400 nm. Results were read with a computer program Gen5 and treated with ExCel computer program. […] Specific activity (A) was calculated as the enzyme activity (U) per 1 mg of protein. […] Residual activity (%) was calculated with formula: Residual activity (%) = v/v0 ×100, where v is the initial reaction rate of enzymes under the action of an inhibitor or other factors, v0 is the initial reaction rate of enzymes in the absence of the influence of any factors. […]

As to `COc1cc2ccnc3c2c(c1O)NC=C3` [Compound 3, 9-demethylaaptamine], in series [1] (Homo sapiens, DLD-1, 24 h, read-out: concentration that caused a 50% reduction in cell viability (IC50) of DLD-1 cells), the IC50 came to 17 ± 0.2 µM. The “expression of the enzyme α-NaGalase (residual activity of lysate cell α-NaGalase, control 100%)” value in series [2] was found to be 57%.

With `COc1cc2ccnc3c2c(c1O)N(C)C=C3` [Compound 2, isoaaptamine], the “cytotoxicity against DLD-1 cells” value in series [1] (24 h, dose up to 20 μM) is listed as “weakly cytotoxic”. Besides, the “decrease in cell viability” value in series [1] (DLD-1 cells, 24 h, at 20 μM) amounted to 20%. Besides, the “expression of the enzyme α-NaGalase (residual activity of lysate cell α-NaGalase, control 100%)” value in series [2] is 64%.
